Where two headings read alike, the source gives them in different places.

Test [1] concerns the target T1, ABL1(Q252H)-nonphosphorylated (Homo sapiens, UniProt P00519, Q252H).
T1 construct: purchased Eurofins DiscoverX KINOMEscan (scanTK)
In words: KINOMEscan ScanTK. Type of test: binding.

The target of another test is T2, MERTK (Homo sapiens, UniProt Q12866).
T2 construct: purchased Eurofins DiscoverX KINOMEscan (scanTK)
T2 sequence (Q12866 21-999): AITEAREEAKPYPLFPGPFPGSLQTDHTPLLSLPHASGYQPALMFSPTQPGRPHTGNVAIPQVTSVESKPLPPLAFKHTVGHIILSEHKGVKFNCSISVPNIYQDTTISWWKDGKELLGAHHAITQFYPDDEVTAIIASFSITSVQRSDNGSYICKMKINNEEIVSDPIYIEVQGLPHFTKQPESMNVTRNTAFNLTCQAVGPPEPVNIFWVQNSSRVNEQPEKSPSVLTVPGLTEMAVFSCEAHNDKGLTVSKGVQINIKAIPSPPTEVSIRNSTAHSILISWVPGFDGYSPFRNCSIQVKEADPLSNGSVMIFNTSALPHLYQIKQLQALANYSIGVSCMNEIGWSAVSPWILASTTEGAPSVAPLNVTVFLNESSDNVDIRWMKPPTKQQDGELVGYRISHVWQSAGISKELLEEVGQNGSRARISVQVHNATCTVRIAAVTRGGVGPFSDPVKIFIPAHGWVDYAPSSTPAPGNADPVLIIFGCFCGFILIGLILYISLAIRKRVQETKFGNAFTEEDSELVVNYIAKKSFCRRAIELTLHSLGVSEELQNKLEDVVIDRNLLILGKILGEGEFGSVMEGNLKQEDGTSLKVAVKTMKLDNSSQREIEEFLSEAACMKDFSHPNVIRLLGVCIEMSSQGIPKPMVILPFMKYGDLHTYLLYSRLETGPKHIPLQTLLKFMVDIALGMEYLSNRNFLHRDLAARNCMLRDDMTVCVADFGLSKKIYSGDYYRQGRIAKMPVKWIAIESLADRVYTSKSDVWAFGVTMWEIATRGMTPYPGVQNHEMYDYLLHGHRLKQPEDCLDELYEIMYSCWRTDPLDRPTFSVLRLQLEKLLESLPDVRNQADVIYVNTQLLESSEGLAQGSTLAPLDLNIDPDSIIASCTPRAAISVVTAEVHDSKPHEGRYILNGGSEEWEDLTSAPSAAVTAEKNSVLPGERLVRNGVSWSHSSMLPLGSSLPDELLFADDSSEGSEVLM
As to the kind of experiment: KINOMEscan ScanTK. The test is classed as binding.

The target in the next test is T3, FGFR1 (Homo sapiens, UniProt P11362).
T3 construct: purchased Eurofins DiscoverX KINOMEscan (scanTK)
In words: KINOMEscan ScanTK. Type of test: binding.

Another test deals with wild-type BTK (Homo sapiens, UniProt Q06187). As to the kind of experiment: NanoBRET target engagement assay in HEK293 cells.
The target in a further test is T4, IGF1R (Homo sapiens, UniProt P08069).
T4 construct: purchased Eurofins DiscoverX KINOMEscan (scanTK)
As to the kind of experiment: KINOMEscan ScanTK. Type of test: binding.

The target in the next test is T5, EPHB2 (Homo sapiens, UniProt P29323).
T5 construct: purchased Eurofins DiscoverX KINOMEscan (scanTK)
T5 sequence (P29323 19-1055): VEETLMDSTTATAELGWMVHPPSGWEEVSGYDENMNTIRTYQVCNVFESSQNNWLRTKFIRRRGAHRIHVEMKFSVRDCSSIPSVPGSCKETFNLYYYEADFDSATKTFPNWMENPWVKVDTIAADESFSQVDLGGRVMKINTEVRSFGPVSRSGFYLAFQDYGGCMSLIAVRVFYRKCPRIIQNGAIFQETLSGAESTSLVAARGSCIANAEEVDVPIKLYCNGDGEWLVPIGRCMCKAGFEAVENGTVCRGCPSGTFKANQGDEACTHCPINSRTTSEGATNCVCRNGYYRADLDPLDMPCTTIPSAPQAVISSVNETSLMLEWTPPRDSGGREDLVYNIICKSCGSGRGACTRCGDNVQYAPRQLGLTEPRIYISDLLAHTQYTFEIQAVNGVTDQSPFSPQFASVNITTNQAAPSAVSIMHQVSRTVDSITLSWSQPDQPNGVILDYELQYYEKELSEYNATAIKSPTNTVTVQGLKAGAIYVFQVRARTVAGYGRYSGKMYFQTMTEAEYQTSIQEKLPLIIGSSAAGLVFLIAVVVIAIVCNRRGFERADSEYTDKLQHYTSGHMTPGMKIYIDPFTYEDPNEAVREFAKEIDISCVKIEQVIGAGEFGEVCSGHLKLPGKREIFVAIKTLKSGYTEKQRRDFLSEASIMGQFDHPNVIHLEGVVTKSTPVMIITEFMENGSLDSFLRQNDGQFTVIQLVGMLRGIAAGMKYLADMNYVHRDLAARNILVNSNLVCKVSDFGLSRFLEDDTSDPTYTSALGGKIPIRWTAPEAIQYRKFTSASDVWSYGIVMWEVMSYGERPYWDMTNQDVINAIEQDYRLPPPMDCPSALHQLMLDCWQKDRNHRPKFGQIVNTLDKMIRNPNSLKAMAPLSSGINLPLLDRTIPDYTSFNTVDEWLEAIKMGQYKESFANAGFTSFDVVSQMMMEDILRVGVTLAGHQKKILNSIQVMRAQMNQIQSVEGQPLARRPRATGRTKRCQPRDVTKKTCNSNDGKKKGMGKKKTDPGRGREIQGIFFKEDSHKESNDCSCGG
As to the kind of experiment: KINOMEscan ScanTK. Type of test: binding.

The target of test [2] is T6, ABL1(T315I)-phosphorylated (Homo sapiens, UniProt P00519, T315I).
T6 construct: purchased Eurofins DiscoverX KINOMEscan (scanTK)
In words: KINOMEscan ScanTK. Type of test: binding.

The target of test [3] is T7, ABL1(T315I)-nonphosphorylated (Homo sapiens, UniProt P00519, T315I).
T7 construct: purchased Eurofins DiscoverX KINOMEscan (scanTK)
In words: KINOMEscan ScanTK. Type of test: binding.

T3 sequence (P11362 22-822): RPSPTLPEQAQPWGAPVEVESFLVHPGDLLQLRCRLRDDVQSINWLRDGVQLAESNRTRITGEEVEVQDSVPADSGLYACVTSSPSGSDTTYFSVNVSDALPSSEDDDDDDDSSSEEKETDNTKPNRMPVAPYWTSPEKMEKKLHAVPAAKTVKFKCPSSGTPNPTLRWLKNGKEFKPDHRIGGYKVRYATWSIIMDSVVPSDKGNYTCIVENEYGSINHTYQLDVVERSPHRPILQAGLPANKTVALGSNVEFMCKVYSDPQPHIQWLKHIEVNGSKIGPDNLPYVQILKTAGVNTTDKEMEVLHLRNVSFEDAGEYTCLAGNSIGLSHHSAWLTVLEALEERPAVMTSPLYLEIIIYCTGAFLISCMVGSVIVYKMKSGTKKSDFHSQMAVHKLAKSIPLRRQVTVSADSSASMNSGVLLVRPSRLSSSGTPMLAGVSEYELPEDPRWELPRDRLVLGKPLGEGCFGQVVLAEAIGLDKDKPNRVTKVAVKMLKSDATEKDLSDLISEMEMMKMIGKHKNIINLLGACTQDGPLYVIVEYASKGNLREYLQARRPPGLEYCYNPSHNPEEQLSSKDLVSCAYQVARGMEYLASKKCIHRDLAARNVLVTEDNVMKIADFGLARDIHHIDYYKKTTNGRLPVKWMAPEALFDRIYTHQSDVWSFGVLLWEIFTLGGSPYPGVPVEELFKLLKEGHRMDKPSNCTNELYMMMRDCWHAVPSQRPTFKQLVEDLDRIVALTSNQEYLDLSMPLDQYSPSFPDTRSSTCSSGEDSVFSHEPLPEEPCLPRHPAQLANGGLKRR
T4 sequence (P08069 31-1367): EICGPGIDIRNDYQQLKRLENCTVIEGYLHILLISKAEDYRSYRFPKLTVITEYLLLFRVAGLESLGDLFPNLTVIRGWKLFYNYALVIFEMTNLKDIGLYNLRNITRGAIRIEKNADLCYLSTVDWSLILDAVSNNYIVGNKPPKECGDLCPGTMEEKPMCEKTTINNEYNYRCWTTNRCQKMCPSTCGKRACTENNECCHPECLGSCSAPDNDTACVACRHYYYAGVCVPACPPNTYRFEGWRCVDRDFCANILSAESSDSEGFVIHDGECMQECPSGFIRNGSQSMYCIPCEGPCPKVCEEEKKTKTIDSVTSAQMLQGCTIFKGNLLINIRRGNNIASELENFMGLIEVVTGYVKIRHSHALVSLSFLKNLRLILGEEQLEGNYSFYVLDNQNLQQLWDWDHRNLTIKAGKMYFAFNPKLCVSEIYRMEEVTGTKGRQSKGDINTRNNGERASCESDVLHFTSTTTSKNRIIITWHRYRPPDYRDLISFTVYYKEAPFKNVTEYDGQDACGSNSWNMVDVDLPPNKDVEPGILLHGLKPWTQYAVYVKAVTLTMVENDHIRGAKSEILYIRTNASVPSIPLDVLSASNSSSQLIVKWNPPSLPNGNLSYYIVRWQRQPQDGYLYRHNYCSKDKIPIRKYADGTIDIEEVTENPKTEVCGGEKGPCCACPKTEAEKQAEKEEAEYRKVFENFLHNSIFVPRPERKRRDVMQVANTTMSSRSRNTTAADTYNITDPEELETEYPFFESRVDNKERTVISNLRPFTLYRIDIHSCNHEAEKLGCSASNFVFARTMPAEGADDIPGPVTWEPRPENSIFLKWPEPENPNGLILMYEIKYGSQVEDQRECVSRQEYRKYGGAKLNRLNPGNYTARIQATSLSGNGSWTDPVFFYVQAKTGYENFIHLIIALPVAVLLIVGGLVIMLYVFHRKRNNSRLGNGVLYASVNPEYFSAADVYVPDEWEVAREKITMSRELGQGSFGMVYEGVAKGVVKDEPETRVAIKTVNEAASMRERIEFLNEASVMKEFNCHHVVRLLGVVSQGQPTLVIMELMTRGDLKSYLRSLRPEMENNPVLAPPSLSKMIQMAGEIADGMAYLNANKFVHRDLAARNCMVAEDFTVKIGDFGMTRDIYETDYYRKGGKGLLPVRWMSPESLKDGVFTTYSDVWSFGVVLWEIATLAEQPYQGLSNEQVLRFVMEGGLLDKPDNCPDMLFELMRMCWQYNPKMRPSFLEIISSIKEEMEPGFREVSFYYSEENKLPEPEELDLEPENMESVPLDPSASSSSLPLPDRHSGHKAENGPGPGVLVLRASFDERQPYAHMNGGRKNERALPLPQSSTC
wild-type BTK, sequence (Q06187 whole entry): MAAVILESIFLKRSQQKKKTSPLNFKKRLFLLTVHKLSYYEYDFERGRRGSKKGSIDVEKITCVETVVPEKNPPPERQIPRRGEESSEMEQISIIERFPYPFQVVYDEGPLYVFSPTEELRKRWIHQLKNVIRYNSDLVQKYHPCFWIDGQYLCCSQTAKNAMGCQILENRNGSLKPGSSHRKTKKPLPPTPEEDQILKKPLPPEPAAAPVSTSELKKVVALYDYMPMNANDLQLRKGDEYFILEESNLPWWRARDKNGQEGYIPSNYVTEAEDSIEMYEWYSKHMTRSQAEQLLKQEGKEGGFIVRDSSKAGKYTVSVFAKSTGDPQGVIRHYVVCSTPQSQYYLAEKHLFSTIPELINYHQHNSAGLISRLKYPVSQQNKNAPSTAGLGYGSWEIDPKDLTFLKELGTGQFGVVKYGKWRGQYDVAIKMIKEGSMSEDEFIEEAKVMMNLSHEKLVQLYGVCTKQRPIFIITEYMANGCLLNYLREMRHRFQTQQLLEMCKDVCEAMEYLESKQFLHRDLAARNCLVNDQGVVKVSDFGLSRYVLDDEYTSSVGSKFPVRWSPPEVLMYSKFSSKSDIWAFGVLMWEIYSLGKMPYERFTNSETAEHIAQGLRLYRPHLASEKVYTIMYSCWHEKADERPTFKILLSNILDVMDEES

The term IC50 denotes the concentration that inhibits the measured activity by half. Read a low IC50 as higher potency. In turn, `COC(=O)c1cnc(S(C)(=O)=O)nc1N1CCCC(n2nc(-c3ccc(Oc4ccccc4)cc3)c3c(N)ncnc32)C1` (centres unmarked) [Compound 8b, Methyl 4-(3-(4-Amino-3-(4-phenoxyphenyl)-1H-pyrazolo[3,4-d]pyrimidin-1-yl)piperidin-1-yl)-2-(methylsulfonyl)pyrimidine-5-carboxylate] yielded a difference in %Control versus reference compound Ib at 1 µM in test [1] (@1000nM) of 52%. In addition, the remaining binding at 1 µM in test [1] (@1000nM, read-out: %Control) came to 65%; in test [1] (read-out: %Control @1000nM), 65%; at MERTK (@1000nM, read-out: %Control), 67%; on MERTK (read-out: %Control @1000nM) it was 67%; at FGFR1 (@1000nM, read-out: %Control), 49%; at FGFR1 (read-out: %Control @1000nM), 49%. Moreover, the remaining binding at 1 µM is 94% at IGF1R (@1000nM, read-out: %Control); 94% at IGF1R (read-out: %Control @1000nM); 91% on EPHB2 (@1000nM, read-out: %Control); 91% at EPHB2 (read-out: %Control @1000nM); 68% in test [2] (@1000nM, read-out: %Control); 68% in test [2] (read-out: %Control @1000nM). Moreover, the remaining binding at 1 µM was determined as 76% in test [3] (@1000nM, read-out: %Control) and 76% in test [3] (read-out: %Control @1000nM). In addition, the difference in %Control from compound Ib at 1 µM at FGFR1 (@1000nM) stood at 16%. On wild-type BTK, this molecule returned an IC50 of 38 ± 6 nM. Further, the % Control difference from reference compound Ib at 1 µM on IGF1R (@1000nM) was -2%. Also, the %Control difference from compound Ib at 1 µM on EPHB2 (@1000nM) is -9%. Also, the difference in %Control versus compound Ib at 1 µM in test [2] (@1000nM) was -11%. In test [3] (@1000nM), the difference in % of control versus compound Ib at 1 µM was -17%.

Consider `CCOC(=O)c1cnc(S(C)(=O)=O)nc1N1CCC[C@@H](n2nc(-c3ccc(Oc4ccccc4)cc3)c3c(N)ncnc32)C1` [Compound 8c, Ethyl (R)-4-(3-(4-Amino-3-(4-phenoxyphenyl)-1H-pyrazolo[3,4-d]pyrimidin-1-yl)piperidin-1-yl)-2-(methylsulfonyl)pyrimidine-5-carboxylate], for which the difference in %Control versus reference compound Ib at 1 µM in test [1] (@1000nM) was 23%. Further, the remaining binding at 1 µM in test [1] (@1000nM, read-out: %Control) was 36%; in test [1] (read-out: %Control @1000nM) it was 36%; on MERTK (@1000nM, read-out: %Control), 71%; at MERTK (read-out: %Control @1000nM), 71%; on FGFR1 (@1000nM, read-out: %Control), 86%; at FGFR1 (read-out: %Control @1000nM) it was 86%. The remaining binding at 1 µM at IGF1R (@1000nM, read-out: %Control) is 92%; on IGF1R (read-out: %Control @1000nM), 92%; at EPHB2 (@1000nM, read-out: %Control) it was 98%; at EPHB2 (read-out: %Control @1000nM) it was 98%; in test [2] (@1000nM, read-out: %Control), 72%; in test [2] (read-out: %Control @1000nM), 72%. The remaining binding at 1 µM in test [3] (@1000nM, read-out: %Control) was found to be 84%; in test [3] (read-out: %Control @1000nM) it was 84%. For the same molecule, the difference in %Control from compound Ib at 1 µM on FGFR1 (@1000nM) is 53%. Moreover, the % Control difference from reference compound Ib at 1 µM on IGF1R (@1000nM) was -4%. Also, the %Control difference from compound Ib at 1 µM on EPHB2 (@1000nM) was -2%. Moreover, the difference in %Control versus compound Ib at 1 µM in test [2] (@1000nM) was -7%. Moreover, the difference in % of control versus compound Ib at 1 µM in test [3] (@1000nM) is -9%.

`CNC(=O)c1cnc(S(C)(=O)=O)nc1N1CCCC(n2nc(-c3ccc(Oc4ccccc4)cc3)c3c(N)ncnc32)C1` (centres unmarked) [Compound 8d, 4-(3-(4-Amino-3-(4-phenoxyphenyl)-1H-pyrazolo[3,4-d]pyrimidin-1-yl)piperidin-1-yl)-N-methyl-2-(methylsulfonyl)pyrimidine-5-carboxamide]: the difference in %Control versus reference compound Ib at 1 µM in test [1] (@1000nM) is 13%. Besides, the remaining binding at 1 µM turned out to be 26% in test [1] (@1000nM, read-out: %Control); 26% in test [1] (read-out: %Control @1000nM); 49% on MERTK (@1000nM, read-out: %Control); 49% at MERTK (read-out: %Control @1000nM); 78% on FGFR1 (@1000nM, read-out: %Control); 78% at FGFR1 (read-out: %Control @1000nM). Also, the remaining binding at 1 µM is 100% on IGF1R (@1000nM, read-out: %Control); 100% on IGF1R (read-out: %Control @1000nM); 99% at EPHB2 (@1000nM, read-out: %Control); 99% on EPHB2 (read-out: %Control @1000nM); 85% in test [2] (@1000nM, read-out: %Control); 85% in test [2] (read-out: %Control @1000nM). Further, the remaining binding at 1 µM in test [3] (@1000nM, read-out: %Control) worked out at 77%; in test [3] (read-out: %Control @1000nM), 77%. This molecule displayed a difference in %Control from compound Ib at 1 µM on FGFR1 (@1000nM) of 45%. Also, on wild-type BTK (HEK293 cells, 1 h treatment), the “NanoBRET IC50” value is recorded as “low to subnanomolar”. Further, the % Control difference from reference compound Ib at 1 µM on IGF1R (@1000nM) is 4%. At EPHB2 (@1000nM), the %Control difference from compound Ib at 1 µM is -1%. The difference in %Control versus compound Ib at 1 µM in test [2] (@1000nM) turned out to be 6%. Further, the difference in % of control versus compound Ib at 1 µM in test [3] (@1000nM) was -16%.

The record behind these values is publication PMC11345841, “Exploring 2-Sulfonylpyrimidine Warheads as Acrylamide Surrogates for Targeted Covalent Inhibition: A BTK Story” (Journal of Medicinal Chemistry, 2024).
